# Data taken from publication PMC10999986, “Substrate specificity of a ketosynthase domain involved in bacillaene biosynthesis” (Beilstein Journal of Organic Chemistry, 2024).
# Tests used:
# BaeJ-KS2 [1] = target: T1, BaeJ-KS2 (Bacillus amyloliquefaciens, UniProt Q1RS73); experiment: […] NMR of protein after incubation and ultrafiltration buffer exchange; proteinase K digest; settings: 25 °C, 30 min; labelled compound; covalent binding to active-site Cys proposed
# T1 construct: excised second ketosynthase domain (KS2, module 4) of BaeJ, His-tagged, heterologously expressed, Ni-NTA purified
# T1 sequence (Q1RS73 entry or part of it): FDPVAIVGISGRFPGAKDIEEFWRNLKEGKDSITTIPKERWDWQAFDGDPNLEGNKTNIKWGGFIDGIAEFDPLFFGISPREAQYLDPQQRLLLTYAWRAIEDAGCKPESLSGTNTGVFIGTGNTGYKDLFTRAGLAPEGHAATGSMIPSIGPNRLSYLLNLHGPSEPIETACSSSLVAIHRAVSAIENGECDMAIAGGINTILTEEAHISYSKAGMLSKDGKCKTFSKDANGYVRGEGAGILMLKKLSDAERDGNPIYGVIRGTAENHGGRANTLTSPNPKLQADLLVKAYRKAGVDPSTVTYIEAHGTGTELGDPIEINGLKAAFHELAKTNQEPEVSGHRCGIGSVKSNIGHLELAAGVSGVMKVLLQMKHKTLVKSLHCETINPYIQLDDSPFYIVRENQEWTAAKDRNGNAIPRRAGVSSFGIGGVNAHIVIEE
# BaeJ-KS2 [2] = target: T1, BaeJ-KS2; experiment: […] NMR of protein after incubation and ultrafiltration buffer exchange; format: binding; settings: 25 °C, 30 min; labelled compound; active-site Cys replaced
Compound,13C NMR of protein after incubation and ultrafiltration buffer exchange; protein (BaeJ-KS2 [1]),thioester carbonyl 13C NMR signal (BaeJ-KS2 [2])
CC(=O)NCCSC(=O)CCCNC(=O)[C@H](O)CC(C)C [(R)-11],This observation supports binding of both substrate surrogates to BaeJ-KS2,(R)-11 is not bound to BaeJ-KS2-C222A after incubation and buffer exchange
CC(=O)NCCSC(=O)CCCNC(=O)[C@@H](O)CC(C)C [(S)-11],for both samples obtained from the incubations with (S)-11 and (R)-11 signals were detected,No signal corresponding to a thioester carbonyl group was detected in the protein preparations
